From a melting point compilation (Tetko et al.; mined from patent text by program, amines drawn as free bases though some values may be those of a salt)
Non-standard residues stand in square brackets, D forms with d. Residues, ends and D or L forms follow the SMILES beside them. ξ: configuration not given here. *: point of attachment. Boc = CC(C)(C)OC(=O)*; ξA = CC(N)C(=O)O

| SMILES | melting point |
| --- | --- |
| CN1C(=O)C=C[C@]2(C)c3ccc(-c4cccc([N+](=O)[O-])c4)cc3CC[C@@H]12 | 175 to 177 °C |
| COc1ccc2c(c1)C(c1ccc(O)cc1)c1c-2ccc2cc(OC)ccc12 (stereo not drawn) | 196 to 199 °C |
| Cc1cc2c(C(=O)C3=C(O)C4CCC(C4)C3=O)ccc(S(C)(=O)=O)c2o1 (stereo not drawn) | 258 to 259 °C |
| O=C1NC(=O)C(Nc2ccc(CCNC[C@H](O)COc3ccc(O)cc3)cc2)S1 (stereo partly drawn) | 165 °C |
| COC(=O)CCC(C)C1CCC2C3CCC4CC(N=[N+]=[N-])CCC4(C)C3CC(=O)C12C (stereo not drawn) | 153 °C |
| COC(=O)[C@@H]1C[C@H](OC(=O)c2ccc([N+](=O)[O-])cc2)C[C@H]1C(=O)OCc1ccccc1 | 79.5 °C |
| CCC1CC(=O)C=C(c2ccc(OCC(=O)O)c(Cl)c2Cl)C1 (stereo not drawn) | 163 to 165 °C |
| O=[N+]([O-])c1cc(Br)ccc1-c1ccc(Cl)cc1Cl | 112 to 115 °C |
| COCC(=O)N1c2ccc(N3C[C@H](CNC(C)=O)OC3=O)cc2C[C@H]1C | 174 to 175 °C |
| c1ccc(N(c2ccccc2)c2cccc3cc(-c4nc5ccccc5s4)ccc23)cc1 | 186 to 187 °C |
| COCCOC(=O)c1c(-c2ccncc2)[nH]c(-c2ccncc2)c1C | 174 to 177 °C |
| Cc1nc(Cc2ccc(N)cc2)sc1C | 91 to 92 °C |
| CON=C(C)c1cccc(Nc2nc(OC)cc(OC)n2)c1C(=O)OC | 82 to 84 °C |
| COc1ccc(COc2cccc(C(=O)Nc3ccc(C#N)cn3)c2)cc1 | 132 to 134 °C |
| CC1(C)CC(c2ccc(Cl)cc2)=C(c2ccc(S(C)(=O)=O)cc2)C1 | 144 to 145 °C |
| CCOC(=O)c1cn2c3c(ccc(C)c3c1=O)CCC2C (stereo not drawn) | 106 to 108 °C |
| C1CCN(ON2CCCC2)C1 | 99 °C |
| CCCNC(=O)NS(=O)(=O)c1ccccc1-c1ccc(Cn2c(CCC)nc(C)c2C(=S)OCC)cc1 | 160 to 165 °C |
| COc1ccc(/C=C/C(=O)CC(=O)/C=C/c2ccc(O)cc2)cc1O | 207 to 210 °C |
| CC(=O)NCC1CC(c2cc(F)c(F)c(F)c2)=NO1 (stereo not drawn) | 136 to 137 °C |
| CC1C(c2ccc([N+](=O)[O-])cc2)CC(=O)N1C (stereo not drawn) | 94 to 95 °C |
| CCCCCSc1ccc(CN(O)C(N)=S)s1 | 112 to 114 °C |
| CCOC(=O)/C=C/c1cn(Cc2ccc(OCc3ccccc3)cc2)cc1-c1ccccc1 | 111 to 112 °C |
| CN1CC(CCCl)Cc2ncccc2C1=S (stereo not drawn) | 110 to 120 °C |
| COc1ccc2[nH]cc(-c3cc4nccnc4[nH]3)c2c1 | 268 to 271 °C |
| O=C(CCc1ccccc1)N[C@H]1COC1=O | 104 to 106 °C |

| SMILES | melting point |
| --- | --- |
| COc1cc(C2=NCCO2)cc(OC)c1C(C)=O | 135 to 137 °C |
| CC(=O)NCCCc1nc2cnc3ccc(C)cc3c2n1C | 213 to 215 °C |
| CC(=O)Nc1cnc(-c2ccccc2)c(-c2ccc(=O)n(C(C)C)n2)c1 | 207 to 208 °C |
| CC(=O)OCC1COc2c(C(=O)O)cc(Cl)c(Cl)c2O1 (stereo not drawn) | 144 to 145 °C |
| CCCc1c(OCCCOc2ccc(-c3coc(C)n3)c(OC)c2CCC)ccc2c1OC(C(=O)O)CC2 (stereo not drawn) | 111 to 115 °C |
| Cc1cc(C)cc(N(CCO)Cc2ccc3nc(NCCCN4CCOCC4)n(Cc4nc(C)c(C)nc4C)c3c2)c1 | 140 °C |
| CCCN(CCC)CC(=O)OC1CC2(C)C(C(C)=O)CCC2C2CCC3CC(O)CCC3(C)C12 (stereo not drawn) | 116 to 118 °C |
| O=C(O)COc1ccc(CC(Cc2ccccc2)NS(=O)(=O)c2ccc(Cl)cc2)cc1 (stereo not drawn) | 150 to 151 °C |
| C=C(Cn1ccnc1)c1cc(F)ccc1OCc1ccc(Cl)cc1Cl | 79 to 82 °C |
| Cc1ccc(-c2ccccc2)c(C)c1CO | 77 to 78 °C |
| OCCCNc1cc(Nc2ccc(N3CCOCC3)cc2)ncn1 | 198 to 199 °C |
| CS(=O)(=O)N1CCC[C@@H]1[C@H](CS(=O)(=O)c1ccc(Oc2ccc(OC(F)(F)F)cc2)cc1)N(O)C=O | 89.6 to 93 °C |
| CN1CCC(OC2c3ccccc3CCn3c2nc(-c2ccc(Br)cc2)c3Cl)CC1 (stereo not drawn) | 169 °C |
| Nc1c(Cl)cccc1NC(=S)Nc1cscc1Cl | 276 to 280 °C |
| Cc1cc(-c2ccc(C(F)(F)F)cc2)nc2c(C(=O)Nc3cccc(S(N)(=O)=O)c3)cnn12 | 270 to 272 °C |
| O=C(O)c1cc(=O)c2cc(F)ccc2o1 | 261 to 262 °C |
| CC(=O)OC1=CC2=CCC3C(C(F)CC4(C)C(=O)CCC34)C2CC1 (stereo not drawn) | 175 to 177 °C |
| Nc1cc(-n2cccn2)nc(-c2ccc(Cl)o2)n1 | 210 to 211 °C |
| O=Cc1c(O)c(O)cc([N+](=O)[O-])c1CCCC(=O)O | 164 to 168 °C |
| CNC(=O)ON=C1OCCOC1(C)C | 144 to 146 °C |
| OC(CCN1CCC(c2ccccc2)CC1)c1ccc(-c2ccccc2)cc1 (stereo not drawn) | 99 to 101 °C |
| CC1=NN(CCCn2ccnc2)Cc2cc3ccccn3c21 | 162 to 163 °C |
| Cc1cc(F)cc2[nH]c(=O)c(=O)[nH]c12 | > 300 °C |
| O=C(Oc1cccc2sc(-c3ccc(OCCN4CCCC4)cc3)c(C(=O)c3ccc(F)cc3)c12)c1ccc(F)cc1 | 58 to 63 °C |
| Cc1csc(-c2ccc3c(ccn3S(=O)(=O)c3ccccc3)c2)n1 | 209 to 210 °C |
| CN1CCN(c2nc(C=C3SC(=S)N(CC(=O)O)C3=O)cs2)CC1 | > 300 °C |

| SMILES | melting point |
| --- | --- |
| OC1CCCCC1N1CCC(Cc2ccc(Cl)cc2)CC1 (stereo not drawn) | 69.1 to 70.4 °C |
| CC12CCC(O)C(O)C1=CCC1C2CCC2(C)C(O)C(O)CC12 (stereo not drawn) | 238 to 241 °C |
| CCCc1c2c(c(O)c3c(=O)cc(C(=O)OCC)oc13)CCCC2 | 136 to 138 °C |
| O=C(Nc1ccc([N+](=O)[O-])cc1)N1CCN(c2ncnc3ccccc23)CC1 | 155 to 158 °C |
| Cc1sc(S(N)(=O)=O)cc1NC(=O)c1cnn2c(C(F)(F)F)cc(-c3ccc(C(F)(F)F)cc3)nc12 | 297 °C |
| CCCCCCCCCCC(O)C(O)CN (stereo not drawn) | 98 to 100 °C |
| CN1CCN(c2ccc([N+](=O)[O-])cc2)S1(=O)=O | 155 to 163 °C |
| CNC(=O)[C@@H]1CCCN1C(=O)[C@H](C)NC(=O)OCc1ccccc1 | 126 to 129 °C |
| CCc1cc2c(cc1Cl)C=C(C(=O)O)C(C(F)(F)F)O2 (stereo not drawn) | 171 to 172 °C |
| CC(=O)c1cc(C(F)(F)F)nn1-c1ccc(NC(=O)c2cccnc2F)cc1 | 188 to 189 °C |
| CCOc1cc(CCNC(=S)Nc2nccs2)ccc1OC | 150 to 152 °C |
| COC(=O)c1cc(I)ccn1 | 73 to 74 °C |
| O=C(Cl)C=CC=Cc1ccccc1 | 51 to 52 °C |
| COc1ccc2cccc(C(CO)CNC(C)=O)c2c1 (stereo not drawn) | 136 to 138 °C |
| CC(C)(C)OC(=O)N1CC(Oc2ccc(N)nc2)C1 | 83 to 84 °C |
| COC(=O)c1cncc(-c2ccc(OC)c([N+](=O)[O-])c2)c1 | 192 to 194 °C |
| CC(C)NCCCC[C@@H](N)C(=O)O | 224 °C |
| COC(=O)CNC(=O)C(C)NC(=O)CNC(=O)CNC(=O)OC(C)(C)C (stereo not drawn) (Boc-GG[ξA]G-OMe) | 103 to 105 °C |
| CCN(c1nc(-c2c(F)cccc2OC)c2[nH]ncc2n1)c1ccc(C(F)(F)F)cc1Cl | 184 to 185 °C |
| COC(=O)c1cc2cc(C)ccc2s1 | 78 to 79 °C |
| Cc1cc(C)cc(OC(=O)C(Cl)c2ccccc2)c1 (stereo not drawn) | 79 °C |
| O=S(=O)(NC(CO)(CO)CO)c1cncc(C#Cc2cnn3c(C(F)(F)F)cc(-c4ccc(C(F)(F)F)cc4)nc23)c1 | 230 to 232 °C |
| COc1c(C)c(C)c(OC)c(CC[C@@]2(C)CO2)c1C | 47 to 48 °C |
| CCCc1nc(C(C)=O)c(C#N)[nH]1 | 93 to 95 °C |
| Cc1nc(N2CCN(CC3CC3)C2=O)sc1C(N)=O | 198 to 200 °C |
| CCOC(=O)Nc1nc2ccccc2c2c1nc(CC)n2CCCCNS(C)(=O)=O | 185 to 187 °C |

| SMILES | melting point |
| --- | --- |
| COc1ncc(Cl)cc1C1(O)CCN(CC23CC(c4ccccc42)c2ccccc23)CC1 | 195 °C |
| O=C1NCCc2cc(Br)ccc21 | 137 to 139 °C |
| NC(=O)c1ccc(Cl)c(Br)c1 | 146 to 147 °C |
| Cc1ccc(SC(Cc2ccc(OCCN(C)c3nc4ccccc4o3)cc2)C(=O)O)cc1 (stereo not drawn) | 137 °C |
| Cc1ccc(S(=O)(=O)OCC2Cc3cccc(-c4cccc(F)c4)c3O2)cc1 (stereo not drawn) | 88 to 90 °C |
| COc1ccc2c(c1)N(C(C)=O)CCO2 | 76 to 77 °C |
| O=c1c2c(Cl)cc(Cl)cc2n(Cc2ccccc2)c(=O)n1Cc1cccc(F)c1 | 112 to 116 °C |
| O=c1[nH]c2cc(Br)ccc2c(=O)n1Cc1ccc(Br)cc1F | > 280 °C |
| O=C1CC(OC2CCCCO2)C(CC2CCCCC2)N1 (stereo not drawn) | 110 to 115 °C |
| C[C@H]1CCCC(C)(C)[C@@H]1C(=O)c1ccco1 | 81 to 84 °C |
| O=C1CCC(c2ccccc2)(c2ccccc2)[C@@H]2CN(C(=O)Cc3ccccc3O)C[C@H]12 (racemic) | 232 °C |
| COC(=O)c1cc(N=Nc2ccc(S(=O)(=O)Cl)cc2)ccc1O | 137 to 138 °C |
| NC(=O)c1nnn(Cc2cc(Cl)c(S(=O)c3ccc(Cl)cc3)c(Cl)c2)c1N (stereo not drawn) | 195 to 197 °C |
| COc1cc2c(cc1Nc1ncc(Cl)c(Nc3ccc(N4CCOCC4)cc3OC)n1)CCN(C(=O)CN(C)C)CC2 | 84 to 101 °C |
| N#Cc1cc(CC(=O)O)cc2c1NC(C(F)(F)F)CC2 (stereo not drawn) | 148 to 149 °C |
| Cc1c(NC(=O)c2ccc(-c3ccccc3)cc2)ccc2cc(CN3CCCC3)cnc12 | 184 to 186 °C |
| COc1cc2c(cc1OC)C(=O)C(=Cc1cc(Cl)cc(Cl)c1)C2 | 227 °C |
| COc1cc(Nc2nccc(-c3ccc(N4CCN(CCCO)CC4)nc3)n2)cc(OC)c1OC | 116 to 117 °C |
| CN(C)C(N)=Nc1cc(S(C)=O)ccc1N1CCOCC1 (stereo not drawn) | 160 to 161 °C |
| Cc1cc(CCCOc2c(C)cc(-c3noc(=O)[nH]3)cc2C)on1 | 194 to 195 °C |
| C[C@]1(CN2CCN(Nc3ccc(C(F)(F)F)cc3)CC2)Cn2cc([N+](=O)[O-])nc2O1 | 192 to 195 °C |
| COc1cc(C(C)C)c(NC(=O)CN2CCN(CCCSc3nc4ccccc4o3)CC2)c(C(C)C)c1 | 129 to 130 °C |
| NS(=O)(=O)c1ccc(N2C(=O)CN(c3ccccc3)C2=O)cc1 | 291 to 296 °C |
| CC(C)(C)OC(=O)C(C(=O)O)c1cccc(N)c1 (stereo not drawn) | 105 °C |
| N#Cc1cccc2c1NCCC2 | 75 to 76 °C |
